# Patent US7875284B2, “Methods of manufacturing and modifying taxane coatings for implantable medical devices” (Cook Incorporated, priority 2006, dated 2011)
# Legend:
# [1] = for first order rate constants k1, k2 used for the dissolution formula: restated
# Excerpt: The rate of dissolution of the taxane therapeutic agent can vary based on the elution medium being used and the solid form of the taxane therapeutic agent before dissolution. An elution profile can be obtained by any suitable method that allows for measurement of the release of the taxane therapeutic agent from the coating in a manner that can be measured with a desired level of accuracy and precision. In one embodiment, the elution profile of the release of a taxane therapeutic agent is obtained by contacting the medical device with a suitable elution medium. The elution medium can be formulated to simulate conditions present at a particular point of treatment within a body vessel. For example, an elution medium comprising porcine serum can be used to simulate implantation within a blood vessel. The release of taxane therapeutic agent from the medical device can be measured by any suitable spectrographic method, such as measurement of a UV absorption spectrum of the test fluid after contacting the medical device. Typically, the intensity of absorption at characteristic UV absorption peak, such as about 227 nm, can be correlated to the presence and amount of a taxane therapeutic agent in a sample. The amount of taxane therapeutic agent on the medical device can be determined by contacting the medical device with a suitable elution medium and detecting the amount of taxane therapeutic agent released from the medical device into the elution medium.
# Preferably, the coated medical device can be contacted with a modified porcine serum elution medium at a constant flow rate of 16 mL/min for a desired period of time (e.g., 6-24 hours) sufficient to elute the aPTX present on the stent. The percentage of the taxane therapeutic agent dissolved can be measured as a function of time by monitoring the optical density of the first elution medium at 227 nm after contacting the coated stent, as described above. The modified porcine serum elution medium can be prepared by adding 0.104 mL of a 6.0 g/L Heparin solution to porcine serum at 37° C. and adjusting the pH to 5.6+/−0.3 using a 20% v/v aqueous solution of acetic acid. The elution rate profile of the taxane therapeutic agent can be measured for any desired period, and correlated to the amount of aPTX in the coating. Subsequently, the coated medical device is contacted with a second elution medium comprising 0.3% sodium dodecyl sulfate (SDS) at 25° C. a constant flow rate of 16 mL/min for a suitable time period to elute the dPTX present in the coating. The elution rate profile of the taxane therapeutic agent can be measured for any desired period, and correlated to the amount of aPTX (e.g., by elution in porcine serum) and dPTX (e.g., by subsequent elution in SDS) in the coating.
# [2] = Elution of paclitaxel coatings in 0.3% sodium dodecyl sulfate (SDS); assay type: physicochemical; details: 0.3% SDS, 25° C.; FIGS. 7A-7B
# Excerpt: Taxane therapeutic agents can have different elution profiles in different elution media. Another suitable elution medium for taxane therapeutic agent is sodium dodecyl sulfate (SDS).
# [3] = Elution of paclitaxel coatings in aqueous Heptakis-(2,6-di-O-methyl)-β-cyclodextrin (HCD); assay type: physicochemical; details: 0.5% w/w aqueous HCD, 25° C.; within about 1 hour
# Excerpt: A preferred first elution medium is an aqueous solution comprising 0.1% to about 10% of a cyclodextrin. In one aspect, an elution profile may be obtained by contacting a coated medical device comprising a taxane therapeutic agent with an elution medium comprising a cyclodextrin. A cyclodextrin is a cyclic oligosaccharide formed from covalently-linked glucopyranose rings defining an internal cavity. The diameter of the internal axial cavity of cyclodextrins increases with the number of glucopyranose units in the ring. The size of the glucopyranose ring can be selected to provide an axial cavity selected to match the molecular dimensions of a taxane therapeutic agent. The cyclodextrin is preferably a modified beta-cyclodextrin, such as Heptakis-(2,6-di-O-methyl)-β-cyclodextrin (HCD). Suitable cyclodedtrin molecules include other β-cyclodextrin molecules, as well as γ-cyclodextrin structures.
# Preferably, the cyclodextrin elution medium is formulated to provide distinguishable elution rates for different coating configurations, providing different elution profiles for different solid forms of a taxane therapeutic agent in the coating. […] For example, the elution medium may contact a medical device coating in a continuous flow configuration, or in a batch testing configuration.
# Taxane therapeutic agents typically have different elution profiles in different elution media.
"time within which substantially all of the paclitaxel eluted ([1]; continuous flow of porcine serum, FIG. 14, Example 6)","half life of elution ([1]; pig, serum)","percentage of the coating dissolved ([1]; porcine serum, 37° C., single-layer coating on vascular stent, within about 6.5 hours (400 minutes))","first order rate constants k1, k2 used for the dissolution formula ([1]; porcine serum)",rate of elution compared with dihydrate paclitaxel [2],percentage of paclitaxel dissolved/released [3],first order rate constant of elution ([1]; porcine serum (25° C.) as printed),"percentage of the coating eluted ([1]; porcine serum, 37° C., single-layer coating on vascular stent, after about 24 hours)",Structure (SMILES)
less than 5 hours,about 30 minutes,100%,0.0244 min⁻¹,more rapid,about 80%,,,"CC(=O)O[C@H]1C(=O)[C@@]2(C)[C@H]([C@H](OC(=O)c3ccccc3)[C@]3(O)C[C@H](OC(=O)[C@H](O)[C@@H](NC(=O)c4ccccc4)c4ccccc4)C(C)=C1C3(C)C)[C@]1(OC(C)=O)CO[C@@H]1C[C@@H]2O [amorphous paclitaxel, paclitaxel]"
,,,0.0003 min⁻¹,,less than 20%,about 0.0003 min^−1,less than 40%,"CC(=O)O[C@H]1C(=O)[C@@]2(C)[C@H]([C@H](OC(=O)c3ccccc3)[C@]3(O)C[C@H](OC(=O)[C@H](O)[C@@H](NC(=O)c4ccccc4)c4ccccc4)C(C)=C1C3(C)C)[C@]1(OC(C)=O)CO[C@@H]1C[C@@H]2O [dihydrate paclitaxel, paclitaxel]"
